Literature values as cited in PMC11360046 (ACS Omega, 2024).

Tested on: BRD4 BD2
Settings: read-out: IC50 BRD4 BD2; I-58

CN1CCC(Nc2cccc(CN3c4ccccc4C=C4c5c(cccc53)C(=O)N4C)c2)CC1 [Compound I-58, 1-methyl-6-(3-((1-methylpiperidin-4-yl)amino)benzyl)-1,6-dihydro-2H-benzo[6,7]azepino[4,3,2-cd]isoindol-2-one]
IC50: 1.88 nM
